Test results reported in the NIST ThermoML archive (doi:10.1016/j.jct.2019.03.025).
Numbers after ± are expanded uncertainties.

Conditions: Liquid, Vibrating tube method

`Cc1cccc(C)c1` [1,3-dimethylbenzene] showed a mass density (293.15 K, 100 kPa) of 864.2 ± 0.9 kg/m3, a mass density (293.15 K, 1000 kPa) of 864.4 ± 0.9 kg/m3 and a mass density (293.15 K, 3000 kPa) of 865.8 ± 0.9 kg/m3. For the same molecule, the mass density (293.15 K, 5000 kPa) was 866.9 ± 0.9 kg/m3, the mass density (293.15 K, 10000 kPa) was 870.5 ± 0.9 kg/m3 and the mass density (293.15 K, 15000 kPa) was 873.8 ± 0.9 kg/m3. The mass density (293.15 K, 20000 kPa) was 877 ± 0.9 kg/m3, the mass density (293.15 K, 25000 kPa) was 880.2 ± 0.9 kg/m3 and the mass density (293.15 K, 30000 kPa) was 883.2 ± 0.9 kg/m3. It also gave a mass density (293.15 K, 35000 kPa) of 886 ± 1 kg/m3, a mass density (293.15 K, 40000 kPa) of 888.7 ± 1 kg/m3 and a mass density (293.15 K, 50000 kPa) of 894.4 ± 1 kg/m3. The mass density (293.15 K, 60000 kPa) was 899.1 ± 1 kg/m3, the mass density (303.15 K, 100 kPa) was 855 ± 0.9 kg/m3 and the mass density (303.15 K, 1000 kPa) was 855.4 ± 0.9 kg/m3. It also gave a mass density (303.15 K, 3000 kPa) of 857.5 ± 0.9 kg/m3, a mass density (303.15 K, 5000 kPa) of 858.8 ± 0.9 kg/m3 and a mass density (303.15 K, 10000 kPa) of 862.3 ± 0.9 kg/m3. For the same molecule, the mass density (303.15 K, 15000 kPa) was 865.8 ± 0.9 kg/m3, the mass density (303.15 K, 20000 kPa) was 869 ± 0.9 kg/m3 and the mass density (303.15 K, 25000 kPa) was 872.2 ± 0.9 kg/m3. The mass density (303.15 K, 30000 kPa) was 875.3 ± 0.9 kg/m3, the mass density (303.15 K, 35000 kPa) was 878.2 ± 1 kg/m3 and the mass density (303.15 K, 40000 kPa) was 881 ± 1 kg/m3. The mass density (303.15 K, 50000 kPa) was 886.7 ± 1 kg/m3, the mass density (303.15 K, 60000 kPa) was 892 ± 1 kg/m3 and the mass density (313.15 K, 100 kPa) was 846.7 ± 0.9 kg/m3. The mass density (313.15 K, 1000 kPa) was 846.9 ± 0.9 kg/m3, the mass density (313.15 K, 3000 kPa) was 848.6 ± 0.9 kg/m3 and the mass density (313.15 K, 5000 kPa) was 850.1 ± 0.9 kg/m3. It also gave a mass density (313.15 K, 10000 kPa) of 854 ± 0.9 kg/m3, a mass density (313.15 K, 15000 kPa) of 857.6 ± 0.9 kg/m3 and a mass density (313.15 K, 20000 kPa) of 861.1 ± 0.9 kg/m3. It also gave a mass density (313.15 K, 25000 kPa) of 864.5 ± 0.9 kg/m3, a mass density (313.15 K, 30000 kPa) of 867.7 ± 0.9 kg/m3 and a mass density (313.15 K, 35000 kPa) of 870.9 ± 0.9 kg/m3. For the same molecule, the mass density (313.15 K, 40000 kPa) was 873.8 ± 1 kg/m3, the mass density (313.15 K, 50000 kPa) was 879.8 ± 1 kg/m3 and the mass density (313.15 K, 60000 kPa) was 885.1 ± 1 kg/m3. The mass density (323.15 K, 100 kPa) was 837.7 ± 0.9 kg/m3, the mass density (323.15 K, 1000 kPa) was 838.6 ± 0.9 kg/m3 and the mass density (323.15 K, 3000 kPa) was 840.2 ± 0.9 kg/m3. It also gave a mass density (323.15 K, 5000 kPa) of 841.9 ± 0.9 kg/m3, a mass density (323.15 K, 10000 kPa) of 845.9 ± 0.9 kg/m3 and a mass density (323.15 K, 15000 kPa) of 849.8 ± 0.9 kg/m3. For the same molecule, the mass density (323.15 K, 20000 kPa) was 853.6 ± 0.9 kg/m3, the mass density (323.15 K, 25000 kPa) was 857 ± 0.9 kg/m3 and the mass density (323.15 K, 30000 kPa) was 860.4 ± 0.9 kg/m3. The mass density (323.15 K, 35000 kPa) was 863.7 ± 0.9 kg/m3, the mass density (323.15 K, 40000 kPa) was 866.9 ± 1 kg/m3 and the mass density (323.15 K, 50000 kPa) was 873 ± 1 kg/m3. For the same molecule, the mass density (323.15 K, 60000 kPa) was 878.8 ± 1 kg/m3, the mass density (333.15 K, 100 kPa) was 829 ± 0.9 kg/m3 and the mass density (333.15 K, 1000 kPa) was 829.8 ± 0.9 kg/m3. It also gave a mass density (333.15 K, 3000 kPa) of 831.7 ± 0.9 kg/m3, a mass density (333.15 K, 5000 kPa) of 833.4 ± 0.9 kg/m3 and a mass density (333.15 K, 10000 kPa) of 837.6 ± 0.9 kg/m3. The mass density (333.15 K, 15000 kPa) was 841.6 ± 0.9 kg/m3, the mass density (333.15 K, 20000 kPa) was 845.6 ± 0.9 kg/m3 and the mass density (333.15 K, 25000 kPa) was 849.3 ± 0.9 kg/m3. The mass density (333.15 K, 30000 kPa) was 852.8 ± 0.9 kg/m3, the mass density (333.15 K, 35000 kPa) was 856.2 ± 0.9 kg/m3 and the mass density (333.15 K, 40000 kPa) was 859.7 ± 1 kg/m3. The mass density (333.15 K, 50000 kPa) was 866 ± 1 kg/m3, the mass density (333.15 K, 60000 kPa) was 871.9 ± 1 kg/m3 and the mass density (343.15 K, 100 kPa) was 820 ± 0.9 kg/m3. For the same molecule, the mass density (343.15 K, 1000 kPa) was 821.1 ± 0.9 kg/m3, the mass density (343.15 K, 3000 kPa) was 823 ± 0.9 kg/m3 and the mass density (343.15 K, 5000 kPa) was 825 ± 0.9 kg/m3. The mass density (343.15 K, 10000 kPa) was 829.4 ± 0.9 kg/m3, the mass density (343.15 K, 15000 kPa) was 833.6 ± 0.9 kg/m3 and the mass density (343.15 K, 20000 kPa) was 837.9 ± 0.9 kg/m3. It also gave a mass density (343.15 K, 25000 kPa) of 841.7 ± 0.9 kg/m3, a mass density (343.15 K, 30000 kPa) of 845.5 ± 0.9 kg/m3 and a mass density (343.15 K, 35000 kPa) of 849.2 ± 0.9 kg/m3. For the same molecule, the mass density (343.15 K, 40000 kPa) was 852.5 ± 1 kg/m3, the mass density (343.15 K, 50000 kPa) was 859.1 ± 1 kg/m3 and the mass density (343.15 K, 60000 kPa) was 865 ± 1 kg/m3. The mass density (353.15 K, 100 kPa) was 811.3 ± 0.8 kg/m3, the mass density (353.15 K, 1000 kPa) was 812.2 ± 0.8 kg/m3 and the mass density (353.15 K, 3000 kPa) was 814.3 ± 0.9 kg/m3. It also gave a mass density (353.15 K, 5000 kPa) of 816.2 ± 0.9 kg/m3, a mass density (353.15 K, 10000 kPa) of 821 ± 0.9 kg/m3 and a mass density (353.15 K, 15000 kPa) of 825.7 ± 0.9 kg/m3. For the same molecule, the mass density (353.15 K, 20000 kPa) was 829.8 ± 0.9 kg/m3, the mass density (353.15 K, 25000 kPa) was 834 ± 0.9 kg/m3 and the mass density (353.15 K, 30000 kPa) was 838 ± 0.9 kg/m3. It also gave a mass density (353.15 K, 35000 kPa) of 841.7 ± 0.9 kg/m3, a mass density (353.15 K, 40000 kPa) of 845.3 ± 1 kg/m3 and a mass density (353.15 K, 50000 kPa) of 852.1 ± 1 kg/m3. The mass density (353.15 K, 60000 kPa) was 858.5 ± 1 kg/m3, the mass density (363.15 K, 100 kPa) was 802.2 ± 0.8 kg/m3 and the mass density (363.15 K, 1000 kPa) was 803.3 ± 0.8 kg/m3. For the same molecule, the mass density (363.15 K, 3000 kPa) was 805.5 ± 0.8 kg/m3, the mass density (363.15 K, 5000 kPa) was 807.6 ± 0.8 kg/m3 and the mass density (363.15 K, 10000 kPa) was 812.4 ± 0.9 kg/m3. It also gave a mass density (363.15 K, 15000 kPa) of 817.6 ± 0.9 kg/m3, a mass density (363.15 K, 20000 kPa) of 821.8 ± 0.9 kg/m3 and a mass density (363.15 K, 25000 kPa) of 826 ± 0.9 kg/m3. It also gave a mass density (363.15 K, 30000 kPa) of 830.2 ± 0.9 kg/m3, a mass density (363.15 K, 35000 kPa) of 834.2 ± 0.9 kg/m3 and a mass density (363.15 K, 40000 kPa) of 838.1 ± 0.9 kg/m3. It also gave a mass density (363.15 K, 50000 kPa) of 845.2 ± 1 kg/m3 and a mass density (363.15 K, 60000 kPa) of 852 ± 1 kg/m3.
